Data on 2 compounds can be found in ChEMBL document CHEMBL2074548, “Transport of digoxin by human P-glycoprotein expressed in a porcine kidney epithelial cell line (LLC-PK1)” (J Pharmacol Exp Ther, 1992).

Data set [1] deals with T1, ATP-dependent translocase ABCB1 (Homo sapiens, UniProt P08183). In words: TP_TRANSPORTER: transepithelial transport (basal to apical) in MDR1-expressing LLC-PK1 cells. The data set is classed as functional, cell-based. The settings on record: pig.
Data set [2] has as its target T1, ATP-dependent translocase ABCB1. The data set is described as follows: TP_TRANSPORTER: inhibition of Digoxin transepithelial transport (basal to apical)(Digoxin: 0.1uM, Vinblastine: 20 uM) in MDR1-expressing LLC-PK1 cells. The data set is classed as functional, cell-based. The settings on record: pig, llc-pk1, 20 µM.

T1 sequence (P08183 whole entry): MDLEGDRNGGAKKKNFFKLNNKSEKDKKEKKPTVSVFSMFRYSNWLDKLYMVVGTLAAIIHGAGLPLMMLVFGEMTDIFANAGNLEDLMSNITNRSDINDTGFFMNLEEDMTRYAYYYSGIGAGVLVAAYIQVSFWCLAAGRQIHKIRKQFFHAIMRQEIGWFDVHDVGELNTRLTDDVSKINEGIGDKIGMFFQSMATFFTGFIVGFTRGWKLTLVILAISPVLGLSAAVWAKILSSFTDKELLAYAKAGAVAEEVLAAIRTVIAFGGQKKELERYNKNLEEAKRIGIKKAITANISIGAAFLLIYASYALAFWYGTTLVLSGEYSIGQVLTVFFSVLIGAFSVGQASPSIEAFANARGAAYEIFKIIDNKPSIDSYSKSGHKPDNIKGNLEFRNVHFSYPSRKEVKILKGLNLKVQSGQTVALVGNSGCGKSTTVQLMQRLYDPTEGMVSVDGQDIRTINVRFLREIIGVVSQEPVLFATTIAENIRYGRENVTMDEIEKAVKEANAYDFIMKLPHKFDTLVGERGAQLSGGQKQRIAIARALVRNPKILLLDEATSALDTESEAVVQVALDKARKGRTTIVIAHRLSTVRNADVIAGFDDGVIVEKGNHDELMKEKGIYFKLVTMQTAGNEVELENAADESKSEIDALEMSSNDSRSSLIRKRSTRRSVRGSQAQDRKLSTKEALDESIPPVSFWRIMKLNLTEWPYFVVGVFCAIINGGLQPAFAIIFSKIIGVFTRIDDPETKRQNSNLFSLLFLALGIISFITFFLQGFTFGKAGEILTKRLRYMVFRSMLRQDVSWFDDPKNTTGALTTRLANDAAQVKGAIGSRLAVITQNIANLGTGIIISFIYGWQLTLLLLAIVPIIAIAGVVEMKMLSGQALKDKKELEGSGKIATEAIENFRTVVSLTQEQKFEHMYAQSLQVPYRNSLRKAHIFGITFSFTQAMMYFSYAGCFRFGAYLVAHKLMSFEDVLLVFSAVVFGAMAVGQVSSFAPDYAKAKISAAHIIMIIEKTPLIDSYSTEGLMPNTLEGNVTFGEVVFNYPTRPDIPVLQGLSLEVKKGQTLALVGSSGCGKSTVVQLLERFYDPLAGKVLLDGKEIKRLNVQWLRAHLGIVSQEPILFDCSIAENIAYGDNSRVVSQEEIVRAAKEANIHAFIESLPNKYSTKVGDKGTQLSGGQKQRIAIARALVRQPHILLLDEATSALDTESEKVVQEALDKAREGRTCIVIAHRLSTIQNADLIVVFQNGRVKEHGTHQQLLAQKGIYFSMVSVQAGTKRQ

Turning to `C[C@H]1O[C@@H](O[C@H]2[C@@H](O)C[C@H](O[C@H]3[C@@H](O)C[C@H](O[C@H]4CC[C@@]5(C)[C@H](CC[C@@H]6[C@@H]5C[C@@H](O)[C@]5(C)[C@@H](C7=CC(=O)OC7)CC[C@]65O)C4)O[C@@H]3C)O[C@@H]2C)C[C@H](O)[C@@H]1O` [DIGOXIN], the Activity result in data set [1] is “substrate [+]”.
As to `CC[C@]1(O)C[C@@H]2CN(CCc3c([nH]c4ccccc34)[C@@](C(=O)OC)(c3cc4c(cc3OC)N(C)[C@H]3[C@@](O)(C(=O)OC)[C@H](OC(C)=O)[C@]5(CC)C=CCN6CC[C@]43[C@@H]65)C2)C1` [VINBLASTINE], the Activity result in data set [2] was “inhibitor [+]”.
